Data on four compounds can be found in ChEMBL document CHEMBL1914284, “Pyrazinamide, but not pyrazinoic acid, is a competitive inhibitor of NADPH binding to Mycobacterium tuberculosis fatty acid synthase I” (Bioorg Med Chem Lett, 2011).

Test [1] relates to Mycobacterium tuberculosis. Description: Binding affinity to Mycobacterium tuberculosis fatty acid synthase 1 at 350 uM by STD NMR spectrophotometric assay.
For test [2], the system named is Mycobacterium tuberculosis. Description: Binding affinity to Mycobacterium tuberculosis fatty acid synthase 1 at 500 uM by STD NMR spectrophotometric assay.
The test system of test [3] is Mycobacterium tuberculosis. Description: Binding affinity to Mycobacterium tuberculosis fatty acid synthase 1 at 8 mM by STD NMR spectrophotometric assay.
Test [4] in a line: Competitive inhibition of Mycobacterium tuberculosis fatty acid synthase 1 assessed as inhibition of NADPH oxidation by STD NMR spectrophotometric analysis.
The nature of test [5]: Binding affinity to Mycobacterium tuberculosis fatty acid synthase 1 by STD NMR spectrophotometric analysis in presence of increasing concentration of NADPH.

Each structure is given as a SMILES string. pKd, pKi: −log10 of the molar value. Calls of active or inactive are those of the source. The calls are words filed in the database; no cut-off is given here.

On to `C/C=C/C/C=C/CCC(=O)[C@H]1O[C@H]1C(N)=O`, for which the result in test [1] was Active.

Turning to `CC[C@@H](CO)NCCN[C@@H](CC)CO`, the outcome in test [2] was inactive.

Take `O=C(O)c1cnccn1`: the result in test [3] was Active.

One may read the pKi as −log10 of the Ki, conventionally taken in molar units. Usually pKd stands for the Kd on a negative log10 scale, so that one unit is a factor of ten. Regarding `NC(=O)c1cnccn1` [PYRAZINAMIDE], in test [4], the negative-log Ki (pKi) is 4.39. The result in test [3] was Active. Besides, in test [5], the pKd was 4.15.
